PubChem BioAssay (NCI)
“And” between values parts separate entries of the source, which are not always exact repeats. Equal entries are not always repeated.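 Interpolation was linear, between the two tested concentrations surrounding the appropriate level; five concentrations were tested over 48 hours in 96-well plates. GI50 is the concentration that inhibits growth by half. TGI: concentration producing complete growth inhibition.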

Experiments:
Test in all cases: NCI anticancer screen, dose series, 48 h
CCRF-CEM leukemia = system: CCRF-CEM leukemia
HL-60(TB) leukemia = system: HL-60(TB) leukemia
HT29 colon = system: HT29 colon
OVCAR-5 ovarian = system: OVCAR-5 ovarian
MCF7 breast = system: MCF7 breast
T-47D breast = system: T-47D breast
MOLT-4 leukemia = system: MOLT-4 leukemia
SW-620 colon = system: SW-620 colon
NCI-H226 lung = system: NCI-H226 lung
HOP-62 NSCLC = system: HOP-62 NSCLC

SMILES	GI50 (CCRF-CEM leukemia)	TGI (CCRF-CEM leukemia)	GI50 (HL-60(TB) leukemia)	TGI (HL-60(TB) leukemia)	GI50 (HT29 colon)	TGI (HT29 colon)	GI50 (OVCAR-5 ovarian)	TGI (OVCAR-5 ovarian)	GI50 (MCF7 breast)	TGI (MCF7 breast)	GI50 (T-47D breast)	TGI (T-47D breast)	GI50 (MOLT-4 leukemia)	TGI (MOLT-4 leukemia)	GI50 (SW-620 colon)	TGI (SW-620 colon)	GI50 (NCI-H226 lung)	TGI (NCI-H226 lung)	GI50 (HOP-62 NSCLC)	TGI (HOP-62 NSCLC)
CCOC(=O)[C@@H]1CSC(CC)=C(C(=O)O)N1	> 100 µM	> 100 µM	> 100 µM	> 100 µM	> 100 µM	> 100 µM	> 100 µM	> 100 µM	> 100 µM	> 100 µM	> 100 µM	> 100 µM	> 100 µM	> 100 µM	> 100 µM	> 100 µM	> 100 µM	> 100 µM	> 100 µM	> 100 µM
C#C[C@]1(O)CC[C@H]2[C@@H]3CC=C4c5nc(N)sc5CC[C@]4(C)[C@H]3CC[C@@]21C	2.79 µM	14.9 µM	2.65 µM	7.04 µM	3.04 µM	12.4 µM	11.8 µM	36.9 µM	3.54 µM	10.1 µM	3.98 µM	29.7 µM	2.18 µM	6.24 µM	2.81 µM	8.68 µM	2.76 µM	7.56 µM	3.43 µM	14.7 µM
CC1(C)N=C(N)N=C(N)N1c1cccc(CCc2ccccc2)c1	0.566 µM	> 100 µM	1.89 µM	28.7 µM	0.135 µM	18.6 µM	–	> 100 µM	0.297 µM	> 43 µM	2.95 µM	> 100 µM	0.599 µM	> 89.2 µM	0.156 µM	> 100 µM	3.42 µM	> 100 µM	1.29 µM	> 100 µM
Nn1c(-c2ccc(Cl)cc2)nc2c(-c3ccc(Cl)cc3)nc3ccc(Cl)cc3c2c1=O	–	1.11 µM	2.76 µM	> 100 µM	> 100 µM	> 100 µM	> 100 µM	> 100 µM	4.1 µM	> 100 µM	9.3 µM	67.2 µM	4.67 µM	> 100 µM	6.06 µM	> 100 µM	40.8 µM	> 100 µM	22.4 µM	57.7 µM
COc1cc(-c2nn(-c3cccc(NC(=O)CCN4CCN(c5ccccc5)CC4)c3)cc2-c2ccncc2)ccc1Cl	3.38 µM	> 100 µM	3.63 µM	> 100 µM	2.66 µM	> 100 µM	3.15 µM	> 100 µM	2.55 µM	> 100 µM	2.09 µM	> 100 µM	2.89 µM	> 100 µM	4.09 µM	> 100 µM	4.13 µM	> 100 µM	4.32 µM	> 100 µM
C=CC(=O)Nc1cc2c(Nc3ccc(F)c(Cl)c3)ncnc2cc1C#CC(C)(C)N1CCN(C)CC1	1.24 µM	5.08 µM	1.88 µM	5.08 µM	1.56 µM	4.09 µM	1.04 µM	6.17 µM	0.995 µM	3.17 µM	0.752 µM	5.32 µM	1.05 µM	5.16 µM	2 µM	4.61 µM	4.06 µM	6.04 µM	3.53 µM	5.9 µM
COc1ccccc1C(=O)N(Cc1ccccc1)c1ccc(Cl)c(C(=O)OC(C)C)c1	–	> 100 µM	–	43.6 µM	–	> 74 µM	–	> 100 µM	–	> 100 µM	–	78.7 µM	–	66.3 µM	–	> 100 µM	–	58 µM	–	85.8 µM
O=c1[nH]cnc2n[nH]nc12	–	> 100 µM	–	> 56.4 µM	–	> 100 µM	–	> 100 µM	24 µM	> 100 µM	3.49 µM	> 100 µM	–	98.4 µM	–	> 100 µM	–	> 66.1 µM	–	> 100 µM
Cn1c(=O)c2c(nc(N/N=C/c3ccccc3C(=O)O)n2C)n(C)c1=O	–	> 100 µM	–	> 100 µM	–	> 100 µM	–	> 100 µM	–	> 100 µM	–	> 100 µM	–	> 100 µM	–	> 100 µM	–	> 100 µM	–	> 100 µM
N#[N+]c1ccc(Nc2ccccc2)cc1	> 50 mg/L	> 50 mg/L	> 50 mg/L	> 50 mg/L	> 50 mg/L	> 50 mg/L	> 50 mg/L	> 50 mg/L	> 50 mg/L	> 50 mg/L	> 50 mg/L	> 50 mg/L	> 50 mg/L	> 50 mg/L	> 50 mg/L	> 50 mg/L	> 50 mg/L	> 50 mg/L	> 50 mg/L	> 50 mg/L
CC(=O)OCC1OC(n2c3c(cc(C#N)c2=S)CCCC3)C(OC(C)=O)C(OC(C)=O)C1OC(C)=O (stereo unspecified)	43.2 µM and > 100 µM	> 100 µM	48.9 µM and > 100 µM	> 100 µM	26.7 µM and > 100 µM	83.9 µM and > 100 µM	–	> 100 µM	48.4 µM and > 100 µM	> 100 µM	> 100 µM	> 100 µM	31.9 µM and > 100 µM	> 100 µM	44.6 µM and > 100 µM	> 100 µM	–	> 100 µM	83.3 µM and 19.9 µM	> 100 µM and 51.5 µM
Cc1ccc(C2CC(c3ccc(Nc4ccnc5cc(Cl)ccc45)cc3)=NN2C=O)cc1 (stereo unspecified)	2.25 µM	> 100 µM	2.27 µM	6.21 µM	6.09 µM	> 100 µM	> 100 µM	> 100 µM	8.39 µM	> 100 µM	1.65 µM	> 100 µM	5.13 µM	> 100 µM	> 100 µM	> 100 µM	> 100 µM	> 100 µM	> 100 µM	> 100 µM
COc1cc2c3cc1Oc1c(OC)c(OC)cc4c1C(Cc1ccc(O)c(c1)Oc1ccc(cc1)CC3N(C)CC2)N(C)CC4 (stereo unspecified)	–	81.8 µM and 57.6 µM	20.2 µM	91.3 µM and 54.6 µM	1.78 µM	> 100 µM and 32.8 µM	8.3 µM	> 100 µM and 62.4 µM	11.5 µM	> 100 µM and 66.8 µM	15 µM	75.7 µM and 36.2 µM	12.1 µM	> 100 µM and 54.9 µM	–	> 100 µM and 33.4 µM	34.4 µM	> 100 µM	24.3 µM	> 100 µM and 64.8 µM
C[As](C)SC1OCC(O)C(O)C1O (stereo unspecified)	0.4 µM	6.42 µM	0.0278 µM	0.189 µM	0.26 µM	> 100 µM	0.208 µM	0.71 µM	0.173 µM	1.29 µM	0.158 µM	4.74 µM	0.0825 µM	0.395 µM	0.217 µM	1.59 µM	0.68 µM	2.19 µM	2.15 µM	9.52 µM
COc1ccccc1NC(=O)C1=C(C)NC(C)=C(C(=O)Nc2ccccc2OC)C1c1ccco1	–	59.8 µM	–	8.51 µM	–	14.7 µM	–	> 100 µM	–	> 100 µM	–	> 100 µM	–	52.7 µM	–	> 100 µM	–	33.1 µM	–	74.6 µM
NC1=NCN(C2OC(CO)C(O)C2O)C(=O)N1 (stereo unspecified)	–	541 µM	–	18.4 µM	–	2000 µM	–	2150 µM	–	328 µM	–	759 µM	–	152 µM	–	1340 µM	–	414 µM	–	966 µM
